US20150344444A1, “BET-PROTEIN-INHIBITING DIHYDROXYQUINOXALINONES” (BAYER PHARMA AKTIENGESELLSCHAFT, priority 2012, published 2015)

How the values were obtained:
[1] = biological target: T1, BRD4 Bromo Domain 1 [BRD4(1)] (Homo sapiens, UniProt O60885); test: BRD4(1)/acetylated peptide H4 binding assay (TR-FRET); conditions: inhibition of interaction between His6-tagged BRD4(1) (amino acids 67-152) and acetylated histone H4 peptide
T1 construct: N-terminally His6-tagged BRD4(1) (amino acids 67-152); made in house; host or cells: E. coli
Source text: Protein-Protein Interaction Assay: BRD4/Acetylated Peptide H4 Binding Assay
1. Assay Description for BRD4 Bromo Domain 1 [BRD4(1)]
To assess the BRD4(1) binding strength of the substances described in this application, the ability thereof to inhibit the interaction between BRD4(1) and acetylated histone H4 in a dose-dependent manner was quantified.
For this purpose, a time-resolved fluorescence resonance energy transfer (TR-FRET) assay was used, which measures the binding between N-terminally His6-tagged BRD4(1) (amino acids 67-152) and a synthetic acetylated histone H4 (Ac-H4) peptide with sequence GRGK(Ac)GGK(Ac)GLGK(Ac)GGAK(Ac)RHGSGSK-biotin. The recombinant BRD4(1) protein produced in house according to Filippakopoulos et al., Cell, 2012, 149:214-231 was expressed in E. coli and purified by means of (Ni-NTA) affinity and (Sephadex G-75) size exclusion chromatography. The Ac-H4 peptide can be purchased, for example, from Biosyntan (Berlin, Germany).
In the assay, typically 11 different concentrations of each substance (0.1 nM, 0.33 nM, 1.1 nM, 3.8 nM, 13 nM, 44 nM, 0.15 μM, 0.51 μM, 1.7 μM, 5.9 μM and 20 μM) were analysed as duplicates on the same microtitre plate. For this purpose, 100-fold concentrated solutions in DMSO were prepared by serial dilutions (1:3.4) of a 2 mM stock solution into a clear, 384-well microtitre plate (Greiner Bio-One, Frickenhausen, Germany). From this, 50 nl were transferred into a black test plate (Greiner Bio-One, Frickenhausen, Germany). The test was started by the addition of 2 μl of a 2.5-fold concentrated BRD4(1) solution (final concentration typically 10 nM in the 5 μl of reaction volume) in aqueous assay buffer [50 mM HEPES pH 7.5, 50 mM sodium chloride (NaCl), 0.25 mM CHAPS and 0.05% serum albumin (BSA)] to the substances in the test plate. This was followed by a 10-minute incubation step at 22° C. for the pre-equilibration of putative complexes between BRD4(1) and the substances.
The mixture was then incubated in the dark at 22° C. for one hour and then at 4° C. for at least 3 hours and for no longer than overnight. The formation of BRD4(1)/Ac-H4 complexes was determined by the measurement of the resonance energy transfer from the streptavidin-Eu cryptate to the anti-6His-XL665 antibody present in the reaction. For this purpose, the fluorescence emission was measured at 620 nm and 665 nm after excitation at 330-350 nm in a TR-FRET measuring instrument, for example a Rubystar or Pherastar (both from BMG Lab Technologies, Offenburg, Germany) or a Viewlux (Perkin-Elmer). The ratio of the emissions at 665 nm and at 622 nm was taken as an indicator of the amount of BRD4(1)/Ac-H4 complexes formed.
The data (ratios) obtained were normalized, with 0% inhibition corresponding to the mean from the measurements for a set of controls (typically 32 data points) in which all the reagents were present. In these, in place of test substances, 50 nl of DMSO (100%) were used Inhibition of 100% corresponded to the mean from the measurements for a set of controls (typically 32 data points) in which all the reagents except BRD4(1) were present. The IC50 was determined by regression analysis based on a 4-parameter equation (minimum, maximum, IC50, Hill; Y=max+(min−max)/(1+(X/IC50)Hill).

B16F10 cells = test: B16F10 cell proliferation assay (alamarBlue); format: cell-based; conditions: B16-F10; inhibition of cell proliferation, 96 hours, mouse melanoma cell line
Description: In accordance with the invention, the ability of the substances to inhibit cell proliferation was determined Cell viability was determined by means of the alamarBlue® reagent (Invitrogen) in a Victor X3 Multilabel Reader (Perkin Elmer). The excitation wavelength was 530 nm and the emission wavelength […].
The B16F10 cells (ATCC, CRL-6475) were sown at a concentration of 300-500 cells/well in 100 μl of growth medium (DMEM with phenol red, 10% FCS) on 96-well microtitre plates.
After overnight incubation at 37° C., the fluorescence values were determined (CI values). Then the plates were treated with various substance dilutions (1E-5 M, 3E-6 M, 1E-6 M, 3E-7 M, 1E-7 M, 3E-8 M, 1E-8 M) and incubated at 37° C. over 96 hours (MOLM-13, B16F10 cells) or 120 hours (MOLP-8 cells). Subsequently, the fluorescence values were determined (CO values). For the data analysis, the CI values were subtracted from the CO values and the results were compared between cells which had been treated with various dilutions of the substance or only with buffer solution. The IC50 values (substance concentration needed for 50% inhibition of cell proliferation) were calculated therefrom.
B16F10 mouse melanoma cell line

Structure (SMILES) | IC50 [1] | IC50 (B16F10 cells)
COc1ccc(CN2c3cc(Nc4ccc(S(=O)(=O)N5CCOCC5)cc4)ccc3N(C)C(=O)[C@H]2C)cc1 [Example 42, (3R)-4-(4-methoxybenzyl)-1,3-dimethyl-6-{[4-(morpholin-4-ylsulphonyl)phenyl]amino}-3,4-dihydroquinoxalin-2(1H)-one] | 120 nM | 79 nM
COc1ccc(CN2c3cc(Nc4ccc(C(=O)NCC5COC5)cc4)ccc3N(C)C(=O)[C@H]2C)cc1 [Example 19, 4-{[(3R)-4-(4-methoxybenzyl)-1,3-dimethyl-2-oxo-1,2,3,4-tetrahydroquinoxalin-6-yl]amino}-N-(oxetan-3-ylmethyl)benzamide] | 148 nM | 248 nM
C[C@@H]1C(=O)N(C)c2ccc(Nc3ccc(C(=O)NC4CC4)cc3)cc2N1C1CCOCC1 [Example 35, N-cyclopropyl-4-{[(3R)-1,3-dimethyl-2-oxo-4-(tetrahydro-2H-pyran-4-yl)-1,2,3,4-tetrahydroquinoxalin-6-yl]amino}benzamide] | 365 nM | 2400 nM
C[C@@H]1C(=O)N(C)c2ccc(Nc3ccc(S(=O)(=O)N4CCN(C)CC4)cc3)cc2N1Cc1ccccc1 [Example 15, (3R)-4-benzyl-1,3-dimethyl-6-({4-[(4-methylpiperazin-1-yl)sulphonyl]phenyl}amino)-3,4-dihydroquinoxalin-2(1H)-one] | 128 nM | 224 nM
CC(=O)N1CCC(NC(=O)c2ccc(Nc3ccc4c(c3)N(C3CCOCC3)[C@H](C)C(=O)N4C)cc2)CC1 [Example 32, N-(1-acetylpiperidin-4-yl)-4-{[(3R)-1,3-dimethyl-2-oxo-4-(tetrahydro-2H-pyran-4-yl)-1,2,3,4-tetrahydroquinoxalin-6-yl]amino}benzamide] | 371 nM | 6420 nM
COc1ccc(CN2c3cc(Nc4ccc(S(=O)(=O)N5CCN(C)CC5)cc4)ccc3N(C)C(=O)[C@H]2C)cc1 [Example 43, (3R)-4-(4-methoxybenzyl)-1,3-dimethyl-6-({4-[(4-methylpiperazin-1-yl)sulphonyl]phenyl}amino)-3,4-dihydroquinoxalin-2(1H)-one] | 103 nM | 212 nM
C[C@@H]1C(=O)N(C)c2ccc(Nc3ccc(C(=O)NC4CC4)cc3)cc2N1C1CCCC1 [Example 2, 4-{[(3R)-4-cyclopentyl-1,3-dimethyl-2-oxo-1,2,3,4-tetrahydroquinoxalin-6-yl]amino}-N-cyclopropylbenzamide] | 144 nM | 1690 nM
CC(C)N1CCN(C(=O)c2ccc(Nc3ccc4c(c3)N(C3CCOCC3)[C@H](C)C(=O)N4C)cc2)CC1 [Example 33] | 310 nM | 1750 nM
C[C@@H]1C(=O)N(C)c2ccc(Nc3ccc(C(=O)NC4CC4)cc3)cc2N1Cc1ccccc1 [Example 10, 4-{[(3R)-4-benzyl-1,3-dimethyl-2-oxo-1,2,3,4-tetrahydroquinoxalin-6-yl]amino}-N-cyclopropylbenzamide] | 308 nM | –
C[C@@H]1C(=O)N(C)c2ccc(Nc3ccc(C(=O)NC4CN(C)C4)cc3)cc2N1C1CCOCC1 [Example 34, 4-{[(3R)-1,3-dimethyl-2-oxo-4-(tetrahydro-2H-pyran-4-yl)-1,2,3,4-tetrahydroquinoxalin-6-yl]amino}-N-(1-methylazetidin-3-yl)benzamide] | 511 nM | 3570 nM
COc1ccc(CN2c3cc(Nc4ccc(C(=O)N5CCN(C(C)C)CC5)cc4)ccc3N(C)C(=O)[C@H]2C)cc1 [Example 22, (3R)-4-(4-methoxybenzyl)-1,3-dimethyl-6-[(4-{[4-(propan-2-yl)piperazin-1-yl]carbonyl}phenyl)amino]-3,4-dihydroquinoxalin-2(1H)-one] | 175 nM | 522 nM
C[C@@H]1C(=O)N(C)c2ccc(Nc3ccc(C(=O)N(C)C)cc3)cc2N1C1CCCC1 [Example 8, 4-{[(3R)-4-cyclopentyl-1,3-dimethyl-2-oxo-1,2,3,4-tetrahydroquinoxalin-6-yl]amino}-N,N-dimethylbenzamide] | 98 nM | 584 nM
C[C@@H]1C(=O)N(C)c2ccc(Nc3ccc(C(=O)N4CCOCC4)cc3)cc2N1C1CCCCCC1 [Example 24, (3R)-4-cycloheptyl-1,3-dimethyl-6-{[4-(morpholin-4-ylcarbonyl)phenyl]amino}-3,4-dihydroquinoxalin-2(1H)-one] | 143 nM | 732 nM
COc1ccc(CN2c3cc(Nc4ccc(S(=O)(=O)N(C)C)cc4)ccc3N(C)C(=O)[C@H]2C)cc1 [Example 41, 4-{[(3R)-4-(4-methoxybenzyl)-1,3-dimethyl-2-oxo-1,2,3,4-tetrahydroquinoxalin-6-yl]amino}-N,N-dimethylbenzenesulphonamide] | 183 nM | 175 nM
C[C@@H]1C(=O)N(C)c2ccc(Nc3ccc(C(=O)N4CC5(CCS5(=O)=O)C4)cc3)cc2N1Cc1ccccc1 [Example 16, (3R)-4-benzyl-6-({4-[(1,1-dioxido-1-thia-6-azaspiro[3.3]hept-6-yl)carbonyl]phenyl}amino)-1,3-dimethyl-3,4-dihydroquinoxalin-2(1H)-one] | 257 nM | 251 nM
C[C@@H]1C(=O)N(C)c2ccc(Nc3ccc(C(=O)NC4CCCC4)cc3)cc2N1C1CCCC1 [Example 1, N-cyclopentyl-4-{[(3R)-4-cyclopentyl-1,3-dimethyl-2-oxo-1,2,3,4-tetrahydroquinoxalin-6-yl]amino}benzamide] | 173 nM | 1500 nM
COc1ccc(CN2c3cc(Nc4ccc(C(=O)NCCN5CCN(C)CC5)cc4)ccc3N(C)C(=O)[C@H]2C)cc1 [Example 21, 4-{[(3R)-4-(4-methoxybenzyl)-1,3-dimethyl-2-oxo-1,2,3,4-tetrahydroquinoxalin-6-yl]amino}-N-[2-(4-methylpiperazin-1-yl)ethyl]benzamide] | 108 nM | 403 nM
C[C@@H]1C(=O)N(C)c2ccc(Nc3ccc(C(=O)N4CC5(COC5)C4)cc3)cc2N1C1CCOCC1 [Example 29] | 185 nM | 2710 nM
C[C@@H]1C(=O)N(C)c2ccc(Nc3ccc(S(=O)(=O)N4CCOCC4)cc3)cc2N1Cc1ccccc1 [Example 13, (3R)-4-benzyl-1,3-dimethyl-6-{[4-(morpholin-4-ylsulphonyl)phenyl]amino}-3,4-dihydroquinoxalin-2(1H)-one] | 168 nM | 136 nM
C[C@@H]1C(=O)N(C)c2ccc(Nc3ccc(C(=O)N4CCOCC4)cc3)cc2N1C1CCCC1 [Example 6, (3R)-4-cyclopentyl-1,3-dimethyl-6-{[4-(morpholin-4-ylcarbonyl)phenyl]amino}-3,4-dihydroquinoxalin-2(1H)-one] | 74 nM | 371 nM
C[C@@H]1C(=O)N(C)c2ccc(Nc3ccc(C(=O)NCC4COC4)cc3)cc2N1C1CCCCCC1 [Example 25, 4-{[(3R)-4-cycloheptyl-1,3-dimethyl-2-oxo-1,2,3,4-tetrahydroquinoxalin-6-yl]amino}-N-(oxetan-3-ylmethyl)benzamide] | 454 nM | –
